# Where “and” joins values, the source holds several entries; their conditions need not be identical. Equal entries are not always repeated. Marks after values point to notes of the source that are not given here.
# How the values were obtained:
# [1] = test system: diet-induced obese (DIO) C57BL/6 mice; assay: Diet-induced obese C57BL/6 mice, 15-day study; assay type: in vivo, mouse; details: for Body weight % change: days 1 to 15, DIO mice
# Procedure: The exemplary incretin analogs as described herein are proposed as a treatment not only for diabetes but also for metabolic syndrome, which is a collection of co-morbidities (dyslipidemia, obesity, hepatic steatosis, etc.) associated with insulin resistance and diabetes. To investigate the effects of the exemplary analogs on parameters such as weight loss, metabolism, body composition and hepatic steatosis, they were dosed to C57BL/6 diet-induced obese (DIO) mice. These animals, although not diabetic, display insulin resistance, dyslipidemia and hepatic steatosis, all characteristics of metabolic syndrome, after being placed on a high-fat diet for 18 weeks.
# Specifically, DIO male C57BL/6 mice 24 to 25 weeks old maintained on a calorie-rich diet are used in the following studies. Mice are individually housed in a temperature-controlled (24° C.) facility with 12-hour light/dark cycle (lights on 22:00) and free access to food (TD95217) and water. After a minimum of 2 weeks acclimation to the facility, the mice are randomized according to their body weight, so each experimental group of animals would have similar body weight. The body weights range from 40 to 51 g.
# All groups contain 5-6 mice. Vehicle, exemplary analogs dissolved in vehicle (40 mM Tris-HCl at pH 8.0), and semaglutide dissolved in vehicle are administered by subcutaneous (SC) injection (10 mL/kg) to ad libitum fed DIO mice 30 to 90 minutes prior to the onset of the dark cycle every 3 days for 15 days. SC injections are made on Day 1, 4, 7, 10 and 13. Body weight and food intake are measured daily throughout the study.
# Absolute changes in body weight are calculated by subtracting the body weight of the same animal prior to the first injection of vehicle, analog or semaglutide. On Days 0 and 15, total fat mass is measured by nuclear magnetic resonance (NMR) using an Echo Medical System Instrument (Houston, Tex.). On Day 15, animals are sacrificed prior to dark photoperiod, and the livers are removed and frozen. Liver triglycerides, determined from homogenates of livers collected at sacrifice, and plasma cholesterol are measured on a Hitachi Modular P clinical analyzer.
# Data are presented as mean±SEM of 5-6 animals per group in Tables 7 and 8 below. Statistical analysis is performed using repeated measures ANOVA, followed by Dunnett's method for multiple comparisons. Significant differences are identified at p<0.05.
# male Wistar rats = assay: Intravenous glucose tolerance test (ivGTT), insulin secretion in male Wistar rats; assay type: in vivo, rat; parameters: unit not given here; details: semaglutide 10 nmol/kg positive control in the run of the Example, mean ± SEM, n=6
# Procedure: An intravenous glucose tolerance test (ivGTT) in rats (male Wistar) is used to estimate insulinotropic potency of the exemplary analogs. The GLP-1 RA semaglutide is used as a positive control. Rats with surgically implanted cannulas in the jugular vein and carotid artery (Envigo, Indianapolis, Ind.; 280-320 grams) are housed one per cage in polycarbonate cages with filter tops. Rats are maintained on a 12-hour light-dark cycle at 21° C. and receive 2014 Teklad Global Diet (Envigo, Indianapolis) and deionized water ad libitum. Rats are randomized by body weight and dosed 1.5 mL/kg subcutaneous (sc) with exemplary analogs 16 hours prior to glucose administration, and then fasted. Stock concentrations of […] of the exemplary analogs are diluted in Tris buffer pH 8.0 to 6.667 nMol/mL, 2.0 nMol/mL, 0.667 nMol/mL, 0.2 nMol/mL; doses tested are vehicle, 1, 3 and 10 nMol/kg, and, in some cases 0.3 and 30 nMol/kg. Semaglutide is used as positive control, and its insulinotropic effects are measured both in its own test (vehicle and 1, 3, 10 and 30 nMol/kg doses) and in connection with each run of the exemplary analogs (10 nMol/kg dose).
# A time 0 blood sample is collected into EDTA tubes after which glucose is administered ([…], 5 mL/kg). […] Plasma insulin is determined using an electrochemiluminescence assay (Meso Scale, Gaithersburg, Md.). […]
# [2] = 3 nmol/kg, after fifteen days, DIO mice, mean ± SEM
substance,measurement,setting,value
semaglutide,Body weight % change,[1]; 3 nmol/kg SC every 3 days,−2.62 ± 0.49%
same,ALT,[1]; [2],99.8 ± 14.84 IU/L
same,Cholesterol,[1]; [2],218.0 ± 9.23 mg/dL
same,Glucose,[1]; [2],137.8 ± 7.34 mg/dL
same,Liver Triglycerides,[1]; [2],226.4 ± 23.8 mg/g tissue
same,Plasma Insulin,[1]; [2],4196 ± 1014 pg/mL
same,Body weight % change,[1]; 10 nmol/kg SC every 3 days,−10.31 ± 1.25%
same,Body weight % change,[1]; 30 nmol/kg SC every 3 days,−15.49 ± 2.44%
same,AUC30min of Insulin after a Bolus IV Glucose,male Wistar rats,44.7 +/− 3.7* and 55.1 +/− 9.0* and 40.2 +/− 2.5* and 38.4 +/− 6.0* and 56.3 +/− 7.7* and 48.4 +/− 6.6* and 51.86 +/− 6.7* and 45.6 +/− 6.6*

# Reference: patent US11542313B2, “Incretin analogs and uses thereof” (Eli Lilly and Company, priority 2017, dated 2023)
